Laboratory results taken from ChEMBL document CHEMBL1136607, “Novel thrombin inhibitors incorporating non-basic partially saturated heterobicyclic P1-arginine mimetics” (Bioorg Med Chem Lett, 2003).
pKi: −log10 of the molar value.

Key:
Serine protease 1 = Serine protease 1 (Homo sapiens, UniProt P07477); assay: In vitro inhibitory activity against Trypsin
Prothrombin = Prothrombin (Homo sapiens, UniProt P00734); assay: In vitro inhibitory activity against Thrombin
Coagulation factor X = Coagulation factor X (Homo sapiens, UniProt P00742); assay: In vitro inhibitory activity against Factor Xa
Homo sapiens [1] = organism: Homo sapiens; assay: Concentration required to double the thrombin time in human plasma (TT); assay type: functional, cell-free
Homo sapiens [2] = organism: Homo sapiens; assay: Concentration required to double the […] prothrombin time in human plasma (PT); assay type: functional, cell-free
Homo sapiens [3] = organism: Homo sapiens; assay: Concentration required to double the activated partial thromboplastin time in human plasma (APTT); assay type: functional, cell-free
[4] = target: Thrombin & trypsin (Homo sapiens) (UniProt P00734+P07477+P07478+P35030); assay: Selectivity ratio of thrombin to trypsin; assay type: protein assay

Serine protease 1, sequence (P07477 whole entry): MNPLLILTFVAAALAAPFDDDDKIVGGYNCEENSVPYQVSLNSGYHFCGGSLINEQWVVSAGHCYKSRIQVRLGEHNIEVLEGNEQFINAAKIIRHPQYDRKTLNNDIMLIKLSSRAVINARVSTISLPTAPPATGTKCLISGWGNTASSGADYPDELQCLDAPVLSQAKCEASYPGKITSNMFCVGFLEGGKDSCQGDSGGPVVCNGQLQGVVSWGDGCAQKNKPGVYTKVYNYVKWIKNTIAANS
Coagulation factor X, sequence (P00742 41-179 limits assumed): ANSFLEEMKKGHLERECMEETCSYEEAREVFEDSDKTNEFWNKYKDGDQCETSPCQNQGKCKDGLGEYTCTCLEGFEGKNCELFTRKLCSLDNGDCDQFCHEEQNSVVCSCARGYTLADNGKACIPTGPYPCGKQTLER
Coagulation factor X, sequence (P00742 235-488 limits assumed): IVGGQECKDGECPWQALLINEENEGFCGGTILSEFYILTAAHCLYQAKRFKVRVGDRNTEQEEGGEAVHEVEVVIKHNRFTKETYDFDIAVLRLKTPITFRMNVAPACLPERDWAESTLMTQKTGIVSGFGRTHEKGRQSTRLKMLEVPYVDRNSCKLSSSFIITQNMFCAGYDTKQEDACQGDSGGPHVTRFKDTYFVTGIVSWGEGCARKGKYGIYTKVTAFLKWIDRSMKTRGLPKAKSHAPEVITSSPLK

| Structure (SMILES) | pKi (Serine protease 1) | pKi (Prothrombin) | pKi (Coagulation factor X) | Ratio [4] | Concentration (Homo sapiens [1]) [µM] | Concentration (Homo sapiens [2]) [µM] | Concentration (Homo sapiens [3]) [µM] |
| --- | --- | --- | --- | --- | --- | --- | --- |
| CC(C)(C)OC(=O)N[C@@H](C(=O)N1CCC[C@H]1C(=O)NCC1CCc2n[nH]cc2C1)C(c1ccccc1)c1ccccc1 (stereo partly drawn) |  | 6.28 | 4.07 |  | 29.2 | 105 | 81 |
| Nc1ncc2c(n1)CCC(NC(=O)[C@@H]1CCCN1C(=O)[C@@H](CC1CCCCC1)NS(=O)(=O)Cc1ccccc1)C2 (stereo partly drawn) | < 4.17 | < 4.45 | < 4.12 |  |  |  |  |
| O=C(NCC1CCc2n[nH]cc2C1)[C@@H]1CCCN1C(=O)[C@@H](CC1CCCCC1)NS(=O)(=O)Cc1ccccc1 (stereo partly drawn) | < 4.17 |  | < 4.12 | > 478 | 11 | 78.3 | 42.3 |
| O=C(NC1CCc2n[nH]cc2C1)[C@@H]1CCCN1C(=O)[C@@H](CC1CCCCC1)NS(=O)(=O)Cc1ccccc1 (stereo partly drawn) | < 4.17 | 5.27 | < 4.12 | > 13 |  |  |  |
| Nc1ncc2c(n1)CCC(CNC(=O)[C@@H]1CCCN1C(=O)[C@@H](CC1CCCCC1)NS(=O)(=O)Cc1ccccc1)C2 (stereo partly drawn) | < 4.17 | < 4.45 | < 4.12 |  |  |  |  |
| CC(C)(C)OC(=O)N[C@H](Cc1ccc(Cl)c(Cl)c1)C(=O)N1CCC[C@H]1C(=O)NCC1CCc2n[nH]cc2C1 (stereo partly drawn) | < 4.17 | 5.48 | < 4.12 | > 21 |  |  |  |
| CC(C)(C)OC(=O)N[C@H](Cc1ccc(Cl)c(Cl)c1)C(=O)N1CCC[C@H]1C(=O)NCC1CCc2nc(N)ncc2C1 (stereo partly drawn) | < 4.17 | < 4.45 | < 4.12 |  |  |  |  |
| N[C@H](Cc1ccc(Cl)c(Cl)c1)C(=O)N1CCC[C@H]1C(=O)NCC1CCc2n[nH]cc2C1 (stereo partly drawn) | < 4.17 | 6.16 | < 4.12 | > 99 |  |  |  |

Second part, led by results:

| pKi (Serine protease 1) | pKi (Prothrombin) | pKi (Coagulation factor X) | Ratio [4] | Structure (SMILES) | Concentration (Homo sapiens [1]) [µM] | Concentration (Homo sapiens [2]) [µM] | Concentration (Homo sapiens [3]) [µM] |
| --- | --- | --- | --- | --- | --- | --- | --- |
| < 4.17 | < 4.45 | < 4.12 |  | Nc1ncc2c(n1)CCC(CNC(=O)[C@@H]1CCCN1C(=O)[C@H](N)Cc1ccc(Cl)c(Cl)c1)C2 (stereo partly drawn) |  |  |  |
| 3.14 |  |  |  | Cn1cc2c(n1)CCC(NC(=O)[C@@H]1CCCN1C(=O)[C@@H](CC1CCCCC1)NS(=O)(=O)Cc1ccccc1)C2 (stereo partly drawn) |  |  |  |
| 3.38 | 4.56 |  | 15 | O=C(NC1CCc2c[nH]cc2C1)[C@@H]1CCCN1C(=O)[C@@H](CC1CCCCC1)NS(=O)(=O)Cc1ccccc1 (stereo partly drawn) |  |  |  |
| 3.47 |  | 3.95 |  | O=C(NCC1CCc2ncncc2C1)[C@@H]1CCCN1C(=O)[C@@H](CC1CCCCC1)NS(=O)(=O)Cc1ccccc1 (stereo partly drawn) |  |  |  |
| 4.70 |  | 4.07 | 71 | O=C(O)CN[C@H](CC1CCCCC1)C(=O)N1CCC[C@H]1C(=O)NCC1CCc2n[nH]cc2C1 (stereo partly drawn) | 4.9 | 55.3 | 28 |
| 3.66 |  | 4.09 |  | N[C@@H](C(=O)N1CCC[C@H]1C(=O)NCC1CCc2n[nH]cc2C1)C(c1ccccc1)c1ccccc1 (stereo partly drawn) |  |  |  |
| 3.39 | 4.89 | 4.24 | 32 | Nc1ncc2c(n1)CCC(CNC(=O)[C@@H]1CCCN1C(=O)[C@H](N)C(c1ccccc1)c1ccccc1)C2 (stereo partly drawn) |  |  |  |
